In patent publication EP0386951A2 (ELI LILLY AND COMPANY, priority 1989, dated 1990) one finds degradation and potency loss data, which are given here for one substance.

Series [1] can be described thus: Stability of daptomycin reconstituted in buffered diluents and diluted in 5% dextrose (appearance of degradation products). The series is classed as physicochemical. The following applies: dissolved in 5% dextrose solution. An excerpt: The effectiveness of the buffered diluents in suppressing the appearance of degradation products is shown below in Table 2: Table 2: […]

The nature of series [2]: Stability of daptomycin reconstituted to 1 mg/ml in normal saline or 5% dextrose, stored at room and refrigerated temperature. In kind it is physicochemical. To be noted: solutions of daptomycin and dextrose, 24 h. As to the method: Next, the solutions were stored at room temperature (approximately 25°C) and refrigerated temperatures and assayed at the 6 h and 24 h timepoints.

On to daptomycin, for which the degradation in series [1] (24 h at 25°C) and in series [1] (7 days at 5°C) was 15-20% in each case. Moreover, the potency loss entry is “about 5%” in series [2] (refrigerated temperature) and 17% in series [2] (room temperature).
